Source: publication PMC7756784 (Chemistry (Weinheim an Der Bergstrasse, Germany), 2020)

Molecular target: human galectin-1 (Gal-1) (Homo sapiens, UniProt P09382)
Assay: ITC, single-site model
Type: binding
Details: 50 mM sodium phosphate, 150 mM NaCl, pH 7.4, 1 mM TCEP

Sequence of human galectin-1 (Gal-1) (P09382 2-135): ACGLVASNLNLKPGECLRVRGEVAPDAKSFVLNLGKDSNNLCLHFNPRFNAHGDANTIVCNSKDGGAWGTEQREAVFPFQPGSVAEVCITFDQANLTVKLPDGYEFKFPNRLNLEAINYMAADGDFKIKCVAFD

| SMILES | Kd |
| --- | --- |
| CC(=O)N[C@H]1C(O)O[C@H](CO)[C@@H](O[C@@H]2O[C@H](CO)[C@H](O)[C@H](O)[C@H]2O[C@@H]2O[C@@H](C)[C@@H](O)[C@@H](O)[C@@H]2O)[C@@H]1O (some centres unmarked) [compound 3, H type‐II] | 319 µM |
| CC(=O)N[C@H]1C(O)O[C@H](CO)[C@@H](O[C@@H]2O[C@H](CO)[C@H](O)[C@H](O[C@H]3O[C@H](CO)[C@H](O)[C@H](O)[C@H]3O)[C@H]2O[C@@H]2O[C@@H](C)[C@@H](O)[C@@H](O)[C@@H]2O)[C@@H]1O (some centres unmarked) [compound 4, B type‐II] | 379 µM |
